Experimental data from US7923450B2, “Modulators for amyloid beta” (Hoffmann-La Roche Inc., priority 2008, dated 2011).

Test system: not given
Assay: not given
Conditions: not given

SMILES	melting point
COc1cc(Nc2ncc3c(n2)C(c2cc(Cl)ccc2Cl)CCCC3)ccc1-n1cnc(C)c1 (stereo not shown) [Example 62, [9-(2,5-Dichloro-phenyl)-6,7,8,9-tetrahydro-5H-cycloheptapyrimidin-2-yl]-[3-methoxy-4-(4-methyl-imidazol-1-yl)-phenyl]-amine]	218 to 220 °C
CCOC(=O)C1CCc2cnc(Nc3ccc(-n4cnc(C)c4)c(OC)c3)nc21 (stereo not shown) [Example 63, Ethyl 2-[3-methoxy-4-(4-methyl-imidazol-1-yl)-phenylamino]-6,7-dihydro-5H-cyclopentapyrimidine-7-carboxylate]	150 to 153 °C
Cc1cn(-c2ccc(Nc3ncc4c(n3)C(c3cccc(C(F)(F)F)c3)CCC4)cc2F)cn1 (stereo not shown) [Example 57, [3-Fluoro-4-(4-methyl-imidazol-1-yl)-phenyl]-[8-(3-trifluoromethyl-phenyl)-5,6,7,8-tetrahydro-quinazolin-2-yl]-amine]	207 to 209 °C
COc1cc(Nc2ncc3c(n2)C(c2ccccn2)CCC3)ccc1-n1cnc(C)c1 (stereo not shown) [Example 84, [3-Methoxy-4-(4-methyl-imidazol-1-yl)-phenyl]-(8-pyridin-2-yl-5,6,7,8-tetrahydro-quinazolin-2-yl)-amine]	181 to 183 °C

Next, values leading:

melting point	SMILES
228 to 231 °C	COc1cc(Nc2nc3c(s2)CCCC3c2ccccc2)ccc1-c1nc(C)no1 (stereo not shown) [Example 89, [3-Methoxy-4-(3-methyl-[1,2,4]oxadiazol-5-yl)-phenyl]-(4-phenyl-4,5,6,7-tetrahydro-benzothiazol-2-yl)-amine]
166 to 168 °C	CCCC1(c2cccc(OC)c2)CCCc2cnc(Nc3ccc(-n4cnc(C)c4)c(OC)c3)nc21 (stereo not shown) [Example 46, [3-Methoxy-4-(4-methyl-imidazol-1-yl)-phenyl]-[8-(3-methoxy-phenyl)-8-propyl-5,6,7,8-tetrahydro-quinazolin-2-yl]-amine]
160 to 164 °C	Cc1cn(-c2ccc(Nc3nc4c(s3)CCCC4(C)c3ccccc3)cc2F)cn1 (stereo not shown) [Example 31, [3-Fluoro-4-(4-methyl-imidazol-1-yl)-phenyl]-(4-methyl-4-phenyl-4,5,6,7-tetrahydro-benzothiazol-2-yl)-amine]
191 to 193 °C	COc1cc(Nc2ncc3c(n2)C(c2ccc(F)cc2)CCC3)ccc1-n1cnc(C)c1 (stereo not shown) [Example 51, [8-(4-Fluoro-phenyl)-5,6,7,8-tetrahydro-quinazolin-2-yl]-[3-methoxy-4-(4-methyl-imidazol-1-yl)-phenyl]-amine]

Test system: γ-secretase
Assay: Cellular γ-secretase assay (Aβ42 secretion)
Format: cell-based
Conditions: inhibition of Aβ42 secretion; human neuroglioma H4 cells overexpressing human APP; 22 hrs incubation; read-out: EC50 in vitro
Experimental: Cellular γ-Secretase Assay
Human neuroglioma H4 cells overexpressing human APP were plated at 30,000 cells/well/200 μl in 96-well plates in IMDM media containing 10% FCS, 0.2 mg/l Hygromycin B and incubated for 2 h at 37° C., 5% CO2 prior to adding test compounds.
Compounds for testing were dissolved in 100% Me2SO yielding in a 10 mM stock solution. Typically 12 μl of these solutions were further diluted in 1000 μl of IMDM media (w/o FCS,). Sub sequential 1:1 dilutions gave a ten point dose response curve. 100 μl of each dilution was added to the cells in 96-well plates. Appropriate controls using vehicle only and reference compound were applied to this assay. The final concentration of Me2SO was 0.4%.
After incubation for 22 hrs at 37° C., 5% CO2, 50 μl supernatant was transferred into round-bottom 96-well polypropylene plates for detection of Aβ42. 50 μl assay buffer (50 mM Tris/Cl, pH 7.4, 60 mM NaCl, 0.5% BSA, 1% TWEEN 20) was added to the wells followed by the addition of 100 μl of detection antibody (ruthenylated Aβ42-specific antibody BAP15 0.0625 μg/mL in assay buffer). 50 μl of a premix of capture antibody (biotinylated 6E10 antibody, 1 μg/mL) and Steptavidin-coated magnetic beads (Dynal M-280, 0.125 mg/mL) were preincubated for 1 hr at room temperature before adding the assay plates. Assay plates were incubated on a shaker for 3 hrs at room temperature and finally read in the Bioveris M8 Analyser according to the manufacturer's instructions (Bioveris).
EC50 values for inhibition of Aβ42 secretion were calculated by nonlinear regression fit analysis using XLfit 4.0 software (IDBS).

SMILES	EC50
COc1cc(Nc2nc3c(s2)CCCC3c2ccc(Cl)c(C(F)(F)F)c2)ccc1-n1cnc(C)c1 (stereo not shown) [Example 16, [4-(4-Chloro-3-trifluoromethyl-phenyl)-4,5,6,7-tetrahydro-benzothiazol-2-yl]-[3-methoxy-4-(4-methyl-imidazol-1-yl)-phenyl]-amine]	90 nM
COc1cc(Nc2nc3c(s2)CCCC3c2ccc(C)c(C(F)(F)F)c2)ccc1-n1cnc(C)c1 (stereo not shown) [Example 9, [3-Methoxy-4-(4-methyl-imidazol-1-yl)-phenyl]-[4-(4-methyl-3-trifluoromethyl-phenyl)-4,5,6,7-tetrahydro-benzothiazol-2-yl]-amine]	100 nM
COc1cc(Nc2nc3c(s2)CCCC3c2cc(Cl)ccc2Cl)ccc1-n1cnc(C)c1 (stereo not shown) [Example 26, [4-(2,5-Dichloro-phenyl)-4,5,6,7-tetrahydro-benzothiazol-2-yl]-[3-methoxy-4-(4-methyl-imidazol-1-yl)-phenyl]-amine]	80 nM
COc1cc(Nc2nc3c(s2)CCCC3(CC#N)c2ccc(Cl)cc2)ccc1-n1cnc(C)c1 (stereo not shown) [Example 19, {4-(4-Chloro-phenyl)-2-[3-methoxy-4-(4-methyl-imidazol-1-yl)-phenylamino]-4,5,6,7-tetrahydro-benzothiazol-4-yl}-acetonitrile]	260 nM
COc1cc(Nc2nc3c(s2)CCCC3c2ccccc2)ccc1-n1cnc(C)c1 (stereo not shown) [Example 6, [3-Methoxy-4-(4-methyl-imidazol-1-yl)-phenyl]-(4-phenyl-4,5,6,7-tetrahydro-benzothiazol-2-yl)-amine]	40 nM
COc1cc(Nc2nc3c(s2)CCCC3c2ccc(Cl)cc2Cl)ccc1-n1cnc(C)c1 (stereo not shown) [Example 25, [4-(2,4-Dichloro-phenyl)-4,5,6,7-tetrahydro-benzothiazol-2-yl]-[3-methoxy-4-(4-methyl-imidazol-1-yl)-phenyl]-amine]	100 nM
COc1cc(Nc2ncc3c(n2)C(c2ccccc2)CCC3)ccc1-n1cnc(C)c1 (stereo not shown) [Example 39, [3-Methoxy-4-(4-methyl-imidazol-1-yl)-phenyl]-(8-phenyl-5,6,7,8-tetrahydro-quinazolin-2-yl)-amine]	480 nM
COc1cc(Nc2nc3c(s2)CCCC3c2cc(F)ccc2F)ccc1-n1cnc(C)c1 (stereo not shown) [Example 12, [4-(2,5-Difluoro-phenyl)-4,5,6,7-tetrahydro-benzothiazol-2-yl]-[3-methoxy-4-(4-methyl-imidazol-1-yl)-phenyl]-amine]	160 nM
COc1ccccc1C1CCCc2sc(Nc3ccc(-n4cnc(C)c4)c(OC)c3)nc21 (stereo not shown) [Example 7, [3-Methoxy-4-(4-methyl-imidazol-1-yl)-phenyl]-[4-(2-methoxy-phenyl)-4,5,6,7-tetrahydro-benzothiazol-2-yl]-amine]	110 nM
COc1cc(Nc2nc3c(s2)CCCC3c2ccccc2)ccc1-c1cnc(C)s1 (stereo not shown) [Example 92, [3-Methoxy-4-(2-methyl-thiazol-5-yl)-phenyl]-(4-phenyl-4,5,6,7-tetrahydro-benzothiazol-2-yl)-amine]	252 nM

Further lines, results first:

EC50	SMILES
470 nM	COc1cc(Nc2ncc3c(n2)C(C2CCCCC2)CCC3)ccc1-n1cnc(C)c1 (stereo not shown) [Example 71, (8-Cyclohexyl-5,6,7,8-tetrahydro-quinazolin-2-yl)-[3-methoxy-4-(4-methyl-imidazol-1-yl)-phenyl]-amine]
500 nM	COc1cc(Nc2ncc3c(n2)C(c2ccccc2)CN(C(C)=O)C3)ccc1-n1cnc(C)c1 (stereo not shown) [Example 42, 1-{2-[3-Methoxy-4-(4-methyl-imidazol-1-yl)-phenylamino]-8-phenyl-7,8-dihydro-5H-pyrido[4,3-d]pyrimidin-6-yl}-ethanone]
90 nM	COc1cc(Nc2nc3c(s2)CCCC3c2ccc(C)c(F)c2)ccc1-n1cnc(C)c1 (stereo not shown) [Example 15]
320 nM	CCN1Cc2cnc(Nc3ccc(-n4cnc(C)c4)c(OC)c3)nc2C(c2ccccc2)C1 (stereo not shown) [Example 44, (6-Ethyl-8-phenyl-5,6,7,8-tetrahydro-pyrido[4,3-d]pyrimidin-2-yl)-[3-methoxy-4-(4-methyl-imidazol-1-yl)-phenyl]-amine]
100 nM	COc1cc(Nc2nc3c(s2)CCCC3c2cc(C(F)(F)F)cc(C(F)(F)F)c2)ccc1-n1cnc(C)c1 (stereo not shown) [Example 29, [4-(3,5-Trifluoromethyl-phenyl)-4,5,6,7-tetrahydro-benzothiazol-2-yl]-[3-methoxy-4-(4-methyl-imidazol-1-yl)-phenyl]-amine]
120 nM	COc1cc(Nc2nc3c(s2)CCCC3c2cc(C)ccc2C)ccc1-n1cnc(C)c1 (stereo not shown) [Example 13, [4-(2,5-Dimethyl-phenyl)-4,5,6,7-tetrahydro-benzothiazol-2-yl]-[3-methoxy-4-(4-methyl-imidazol-1-yl)-phenyl]-amine]
270 nM	COc1cc(Nc2ncc3c(n2)C(c2ccccc2)CN(C(=O)OC(C)(C)C)C3)ccc1-n1cnc(C)c1 (stereo not shown) [Example 40, 2-[3-Methoxy-4-(4-methyl-imidazol-1-yl)-phenylamino]-8-phenyl-7,8-dihydro-5H-pyrido[4,3-d]pyrimidine-6-carboxylic acid tert.-butyl ester]
210 nM	Cc1cn(-c2ccc(Nc3nc4c(s3)CCCC4c3ccccc3)cc2O)cn1 (stereo not shown) [Example 66, 2-(4-Methyl-imidazol-1-yl)-5-(4-phenyl-4,5,6,7-tetrahydro-benzothiazol-2-ylamino)-phenol]
450 nM	CCOC1CCCc2cnc(Nc3ccc(-n4cnc(C)c4)c(OC)c3)nc21 (stereo not shown) [Example 83, (8-Ethoxy-5,6,7,8-tetrahydro-quinazolin-2-yl)-[3-methoxy-4-(4-methyl-imidazol-1-yl)-phenyl]-amine]
120 nM	COc1cc(Nc2nc3c(s2)CCCC3c2cc(F)cc(F)c2)ccc1-n1cnc(C)c1 (stereo not shown) [Example 28, [4-(3,5-Difluoro-phenyl)-4,5,6,7-tetrahydro-benzothiazol-2-yl]-[3-methoxy-4-(4-methyl-imidazol-1-yl)-phenyl]-amine]
50 nM	Cc1cn(-c2ccc(Nc3nc4c(s3)CCCC4c3ccccc3)cc2F)cn1 (stereo not shown) [Example 5, [3-Fluoro-4-(4-methyl-imidazol-1-yl)-phenyl]-(4-phenyl-4,5,6,7-tetrahydro-benzothiazol-2-yl)-amine]
130 nM	Cc1ncc(-c2ccc(Nc3nc4c(s3)CCCC4c3ccccc3)cc2)o1 (stereo not shown) [Example 68, [4-(2-Methyl-oxazol-5-yl)-phenyl]-(4-phenyl-4,5,6,7-tetrahydro-benzothiazol-2-yl)-amine]
70 nM	COc1cc(Nc2nc3c(s2)CN(Cc2ccccc2)CC3c2ccccc2Cl)ccc1-n1cnc(C)c1 (stereo not shown) [Example 23]
